Measurements from US8946413B2 (Pfizer Inc., priority 2008, dated 2015).
Like-named read-outs stand apart in the source and are kept apart here.

Molecular target: T1, CCR2 (Homo sapiens, UniProt P41597)
T1 construct: (leukophoresis pack); host or cells: human peripheral blood mononuclear cells (PBMCs) from a normal human leukophoresis pack
Test: hCCR2 (125-I hMCP-1) small molecule binding assay on human PBMCs
Conditions: 125I-MCP-1, human PBMCs
Excerpt: The CCR2 antagonist activity of compounds of the invention can be reported as the inhibitor concentration required for 50% inhibition (IC50 values) of specific binding in receptor binding assays using 125I-labeled MCP-1, as ligand, and Peripheral Blood Mononuclear Cells (PBMCs) prepared from normal human whole blood via density gradient centrifugation. Specific binding is defined as the total binding (e.g., total cpm on filters) minus the non-specific binding. Non-specific binding is defined as the amount of cpm still defected in the presence of excess unlabeled competitor (e.g., MCP-1),
Human PBMCs were used to test compounds of the invention in a binding assay. For example, 200,000 to 500,000 cells were incubated with 0.1 to 0.2 nM 125I-labeled MCP-1, with or without unlabeled competitor (10 nM MCP-1) or various concentrations of compounds to be tested. 125I-labeled MCP-1, were prepared by suitable methods or purchased from commercial vendors (Perkin Elmer, Boston Mass.). The binding reactions were performed in 50 to 250 μL of a binding buffer consisting of […] pH 7.2, and 0.1% BSA (bovine serum albumin), for 30 minutes at room temperature. The binding reactions were terminated by harvesting the membranes by rapid filtration through glass fiber filters (Perkin Elmer) which was presoaked in 0.3% polyethyleneimine or Phosphate Buffered Saline (PBS). The filters were rinsed with approximately 600 μL of binding buffer containing, 0.5 M NaCl or PBS, then dried, and the amount of bound radioactivity was determined by counting on a Gamma Counter (Perkin Elmer).
More specifically, the following assay may be employed to determine IC50 values for the compounds of the present invention.
hCCR2 (125-I hMCP-1) Small Molecule Binding Assay
Normal human leukophoresis pack contents, available from Biological Specialty Corporation, Colmar, Pa., is diluted 1:1 with PBS, divided into 50 ml conical tubes (preferably less than 40 mls per tube), and underlayed with 10 mls of Ficoll-Paque PLUS (GE Healthcare 17-1440-02). The tubes are centrifuged at 2800 rpm in a clinical centrifuge at room temperature for 30 mins, with no brake. The plasma layer is suctioned, and the buffycoat layer is collected. The collected buffycoat layer is washed twice with 50 mls PBS, and centrifuged at 1400 rpm with brake. The cells are counted. The cells are then diluted to 1×10^7 cells per ml in binding buffer.
96 well plates (such as, for example, Millipore MultiScreen96 plates) are pre-wet with about 100 μl binding buffer (RPMI+0.1% BSA+20 mM HEPES), and blotted just prior to compound addition.
5 μl of 50 μM test compounds in 100% DMSO are dotted onto U-bottom polypropylene 96-well plates.
245 μl per well of Binding Buffer is added to each well for 1 μM compound concentration in 2% DMSO.
50 μl of 1 μM compound is transferred to pre-wetted Millipore plates. 50 μl per well of 1×10E7 cells per ml of freshly prepared human PBMCs are added.
The samples are pre-incubated at room temperature for 30 minutes or 1 hour.
50 μl of 450 pM 125-I-hMCP-1 (Perkin-Elmer/NEN cat#NEX332025UC) is added for a final concentration 125-I-hMCP-1 of 150 pM per well.
The final test compound concentration is 0.333 uM in 150 μl total volume with 0.67% DMSO in all wells. Controls for this assay consist of 0% inhibition and 100% inhibition with 1 uM hMCP-1 (saturating conditions). All wells are run in duplicate. Controls may be in replicates of eight.
The samples are incubated at room temperature for 30 minutes.
The buffer is suctioned through the Millipore plates. The plates are washed three times with Wash Buffer (PRMI+0.1% BSA+20 mM HEPES+ 0.4 M NaC).
The plate underdrain is removed. The plate filters are allowed to dry. The filters are then punched out into plastic tubes.
Finally, the sample is counted an a Gamma Counter.
All IC50 plates were repeated for an n=2.
The following table summarizes the IC50 values identified through the described assay.

[1] = 30 min preincubation, read-out: IC50 (nM) 30 min preinc
[2] = 1 hr preincubation, read-out: IC50 (nM) 1 hr preinc

T1 sequence (P41597 whole entry): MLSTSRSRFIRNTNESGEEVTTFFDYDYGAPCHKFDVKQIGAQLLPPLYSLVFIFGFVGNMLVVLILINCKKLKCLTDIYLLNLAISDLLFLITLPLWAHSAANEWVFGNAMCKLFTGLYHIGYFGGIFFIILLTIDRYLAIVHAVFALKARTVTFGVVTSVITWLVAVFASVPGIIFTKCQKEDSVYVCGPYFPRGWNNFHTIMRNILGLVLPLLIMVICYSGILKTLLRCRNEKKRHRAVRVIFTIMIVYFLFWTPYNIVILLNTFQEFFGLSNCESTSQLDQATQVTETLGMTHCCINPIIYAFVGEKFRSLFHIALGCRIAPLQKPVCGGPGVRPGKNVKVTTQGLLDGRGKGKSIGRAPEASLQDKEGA

Structure (SMILES) | IC50 [1] | IC50 [2]
CC[C@]1(C(=O)N2C[C@@H]3C[C@H]2CN3c2cc(C(F)(F)F)ccn2)CC[C@@H](N[C@H]2CCOC[C@H]2OC)C1 [Example 1, 1,5-anhydro-2,3-dideoxy-3-{[(1R,3S)-3-ethyl-3-({(1S,4S)-5-[4-(trifluoromethyl)pyridin-2-yl]-2,5-diazabicyclo[2.2.1]hept-2-yl}carbonyl)cyclopentyl]amino}-4-O-methyl-D-erythro-pentitol] | 2.47 nM | –
CC[C@]1(C(=O)N2C[C@@H]3C[C@H]2CN3c2nccc(C(F)(F)F)n2)CC[C@@H](N[C@H]2CCOC[C@H]2OC)C1 [Example 2, 1,5-anhydro-2,3-dideoxy-3-{[(1R,3S)-3-ethyl-3-({(1S,4S)-5-[4-(trifluoromethyl)pyrimidin-2-yl]-2,5-diazabicyclo[2.2.1]hept-2-yl}carbonyl)cyclopentyl]amino}-4-O-methyl-D-erythro-pentitol] | 3.16 nM | –
CC[C@]1(C(=O)N2C[C@@H]3C[C@H]2CN3c2cc(C(F)(F)F)ncn2)CC[C@@H](N[C@H]2CCOC[C@H]2OC)C1 [Example 3, 1,5-anhydro-2,3-dideoxy-3-{[(1R,3S)-3-ethyl-3-({(1S,4S)-5-[6-(trifluoromethyl)pyrimidin-4-yl]-2,5-diazabicyclo[2.2.1]hept-2-yl}carbonyl)cyclopentyl]amino}-4-O-methyl-D-erythro-pentitol] | 17.8 nM | –
CC[C@]1(C(=O)N2C[C@@H]3C[C@H]2CN3c2cncc(C(F)(F)F)n2)CC[C@@H](N[C@H]2CCOC[C@H]2OC)C1 [Example 4, 1,5-anhydro-2,3-dideoxy-3-{[(1R,3S)-3-ethyl-3-({(1S,4S)-5-[6-(trifluoromethyl)pyrazin-2-yl]-2,5-diazabicyclo[2.2.1]hept-2-yl}carbonyl)cyclopentyl]amino}-4-O-methyl-D-erythro-pentitol] | 3.98 nM | –
CC[C@]1(C(=O)N2C[C@@H]3C[C@H]2CN3c2ccnc(C(F)(F)F)n2)CC[C@@H](N[C@H]2CCOC[C@H]2OC)C1 [Example 5, 1,5-anhydro-2,3-dideoxy-3-{[(1R,3S)-3-ethyl-3-({(1S,4S)-5-[2-(trifluoromethyl)pyrimidin-4-yl]-2,5-diazabicyclo[2.2.1]hept-2-yl}carbonyl)cyclopentyl]amino}-4-O-methyl-D-erythro-pentitol] | 13.3 nM | –
CC[C@]1(C(=O)N2C[C@@H]3C[C@H]2CN3c2cccc(C(F)(F)F)n2)CC[C@@H](N[C@H]2CCOC[C@H]2OC)C1 [Example 6, 1,5-anhydro-2,3-dideoxy-3-{[(1R,3S)-3-ethyl-3-({(1S,4S)-5-[6-(trifluoromethyl)pyridin-2-yl]-2,5-diazabicyclo[2.2.1]hept-2-yl}carbonyl)cyclopentyl]amino}-4-O-methyl-D-erythro-pentitol] | 1.73 nM | –
CC[C@]1(C(=O)N2C[C@@H]3C[C@H]2CN3c2ccnc(C(F)(F)F)c2)CC[C@@H](N[C@H]2CCOC[C@H]2OC)C1 [Example 7, 1,5-anhydro-2,3-dideoxy-3-{[(1R,3S)-3-ethyl-3-({(1S,4S)-5-[2-(trifluoromethyl)pyridin-4-yl]-2,5-diazabicyclo[2.2.1]hept-2-yl}carbonyl)cyclopentyl]amino}-4-O-methyl-D-erythro-pentitol] | 17.1 nM | –
CC[C@]1(C(=O)N2C[C@@H]3C[C@H]2CN3c2nccc(C(F)(F)F)c2F)CC[C@@H](N[C@H]2CCOC[C@H]2OC)C1 [Example 8, 1,5-anhydro-2,3-dideoxy-3-{[(1R,3S)-3-ethyl-3-({(1S,4S)-5-[3-fluoro-4-(trifluoromethyl)pyridin-2-yl]-2,5-diazabicyclo[2.2.1]hept-2-yl}carbonyl)cyclopentyl]amino}-4-O-methyl-D-erythro-pentitol] | 10.7 nM | –
CO[C@@H]1COCC[C@@H]1N[C@@H]1CC[C@](C)(C(=O)N2C[C@@H]3C[C@H]2CN3c2cc(C(F)(F)F)ccn2)C1 [Example 9, 1,5-anhydro-2,3-dideoxy-3-{[(1R,3S)-3-methyl-3-({(1S,4S)-5-[4-(trifluoromethyl)pyridine-2-yl]-2,5-diazabicyclo[2.2.1]hept-2-yl}carbonyl)cyclopentyl]amino}-4-O-methyl-D-erythro-pentitol] | 30.7 nM | –
CO[C@@H]1COCC[C@@H]1N[C@@H]1CC[C@](C)(C(=O)N2C[C@@H]3C[C@H]2CN3c2cncc(C(F)(F)F)n2)C1 [Example 10, 1,5-anhydro-2,3-dideoxy-3-{[(1R,3S)-3-methyl-3-({(1S,4S)-5-[6-(trifluoromethyl)pyrazin-2-yl]-2,5-diazabicyclo[2.2.1]hept-2-yl}carbonyl)cyclopentyl]amino}-4-O-methyl-D-erythro-pentitol] | 83.8 nM | –
CO[C@@H]1COCC[C@@H]1N[C@@H]1CC[C@@](C(=O)N2C[C@@H]3C[C@H]2CN3c2cc(C(F)(F)F)ccn2)(C(C)C)C1 [Example 11, 1,5-anhydro-2,3-dideoxy-3-{[(1R,3S)-3-isopropyl-3-({(1S,4S)-5-[4-(trifluoromethyl)pyridin-2-yl]-2,5-diazabicyclo[2.2.1]hept-2-yl}carbonyl)cyclopentyl]amino}-4-O-methyl-D-erythro-pentitol] | 6.72 nM | 2.44 nM
CO[C@@H]1COCC[C@@H]1N[C@@H]1CC[C@@](C(=O)N2C[C@@H]3C[C@H]2CN3c2nccc(C(F)(F)F)n2)(C(C)C)C1 [Example 12, 1,5-anhydro-2,3-dideoxy-3-{[(1R,3S)-3-isopropyl-3-({(1S,4S)-5-[4-(trifluoromethyl)pyrimidin-2-yl]-2,5-diazabicyclo[2.2.1]hept-2-yl}carbonyl)cyclopentyl]amino}-4-O-methyl-D-erythro-pentitol] | 11.1 nM | 1.7 nM
CO[C@@H]1COCC[C@@H]1N[C@@H]1CC[C@@](C(=O)N2C[C@@H]3C[C@H]2CN3c2cncc(C(F)(F)F)n2)(C(C)C)C1 [Example 14, 1,5-anhydro-2,3-dideoxy-3-{[(1R,3S)-3-isopropyl-3-({(1S,4S)-5-[6-(trifluoromethyl)pyrazin-2-yl]-2,5-diazabicyclo[2.2.1]hept-2-yl}carbonyl)cyclopentyl]amino}-4-O-methyl-D-erythro-pentitol] | 10.4 nM | 2.3 nM
CO[C@@H]1COCC[C@@H]1N[C@@H]1CC[C@@](C(=O)N2C[C@@H]3C[C@H]2CN3c2ccnc(C(F)(F)F)n2)(C(C)C)C1 [Example 15, 1,5-anhydro-2,3-dideoxy-3-{[(1R,3S)-3-isopropyl-3-({(1S,4S)-5-[2-(trifluoromethyl)pyrimidin-4-yl]-2,5-diazabicyclo[2.2.1]hept-2-yl}carbonyl)cyclopentyl]amino}-4-O-methyl-D-erythro-pentitol] | 40 nM | 4.6 nM
CO[C@@H]1COCC[C@@H]1N[C@@H]1CC[C@@](C(=O)N2C[C@@H]3C[C@H]2CN3c2cccc(C(F)(F)F)n2)(C(C)C)C1 [Example 16, 1,5-anhydro-2,3-dideoxy-3-{[(1R,3S)-3-isopropyl-3-({(1S,4S)-5-[6-(trifluoromethyl)pyridin-2-yl]-2,5-diazabicyclo[2.2.1]hept-2-yl}carbonyl)cyclopentyl]amino}-4-O-methyl-D-erythro-pentitol] | 9.95 nM | 1.1 nM
CO[C@@H]1COCC[C@@H]1N[C@@H]1CC[C@@](C(=O)N2C[C@@H]3C[C@H]2CN3c2ccnc(C(F)(F)F)c2)(C(C)C)C1 [Example 17, 1,5-anhydro-2,3-dideoxy-3-{[(1R,3S)-3-isopropyl-3-({(1S,4S)-5-[2-(trifluoromethyl)pyridin-4-yl]-2,5-diazabicyclo[2.2.1]hept-2-yl}carbonyl)cyclopentyl]amino}-4-O-methyl-D-erythro-pentitol] | 13.7 nM | 5.8 nM
